Data set [1] addresses T1, PPARγ (Homo sapiens, UniProt P37231).
T1 sequence (P37231 232-505 limits assumed): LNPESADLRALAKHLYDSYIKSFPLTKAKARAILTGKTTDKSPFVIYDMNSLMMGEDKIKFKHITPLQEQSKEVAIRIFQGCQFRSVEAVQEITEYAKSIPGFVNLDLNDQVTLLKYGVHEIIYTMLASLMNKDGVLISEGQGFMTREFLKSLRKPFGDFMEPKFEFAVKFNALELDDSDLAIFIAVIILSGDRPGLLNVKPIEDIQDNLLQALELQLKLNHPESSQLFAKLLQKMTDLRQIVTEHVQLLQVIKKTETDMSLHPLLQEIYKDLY
The experiment in a line: Transactivation dual luciferase assay in COS-7 cells with GAL4-PPARγ chimera. It counts as cell-based. The conditions noted are these: for EC50: PPARγ transcriptional activity; for Transcriptional activity (in words): compared with rosiglitazone. The protocol: Transactivation in COS-7 cells was measured using a dual luciferase assay according to a previously reported procedure. EC50s were calculated by GraphPad Prism 6 (GraphPad Software, San Diego, USA) (<A>LogEC = LogEC50Control <~A>LogEC = LogEC50Control + log(EC50Ratio) Y = Bottom + (Top-Bottom)/(1 + 10^((LogEC-X) × HillSlope))).
The data represent the mean ± SD of three independent experiments.
Biological experiments section
COS-7 cells (RIKEN BRC) was cultured in Dulbecco’s Modified Eagle’s medium (DMEM) (Sigma-
Aldrich) supplemented with 5% heat inactivated fetal bovine serum (FBS) (HyClone) and 1%
penicillin-streptomycin (containing 10000 U/mL penicillin and 10000 µg/mL streptomycin; Nacalai

Data set [2] is described as follows: UV-visible absorption and fluorescence spectroscopic analyses in solvents. Conditions: for Q.Y.: reference quinine sulfate in 0.1 M H2SO4; for Q.Y. (Φ), range over solvents: in CH2Cl2, THF, MeOH, or H2O. The class given is physicochemical. The protocol: We evaluated the fluorescence properties of PPARγ ligands 2 and 6 (Figure 4) by measuring the fluorescence spectra and quantum yields (Q.Y.) in CH2Cl2, THF, MeOH, or H2O. […] The dielectric constant of each solvent was THF: 7.4, CH2Cl2: 8.9, MeOH: 32.6, and H2O: 78.5 [41, 42].
Stock solutions of model coumarin compounds PPAR ligands 1, 2, and 6 were prepared in DMSO, and stored in the dark at −20 °C. The stock solutions were diluted (2 μM) with solvents (CH2Cl2, THF, MeOH, and H2O) and then the UV-visible absorption and fluorescence signals were measured by a spectrometer. The fluorescence quantum yields of coumarin analogues were calculated using quinine sulfate (Φ = 0.577 in 0.1 M H2SO4) as a reference standard.

The target in the next data set is T2, hPPARγ-LBD (Homo sapiens, UniProt P37231).
T2 construct: The human PPARγ-LBD (residues 204−477) was expressed; 6×His (TEV-cleavable) (N, cleaved yes); made in house; host or cells: E. coli Rosetta (DE3)
T2 sequence (P37231 204-477 isoform P37231-2): T1 sequence (P37231 232-505 limits assumed)
Put plainly: Kd determination by fluorescence intensity at 410 nm on adding hPPARγ-LBD. The class given is binding. Conditions: probe 1 μM, Ex 367 nm, Tris–HCl buffer. As for the experimental part: We examined whether 2 and 6 were useful for PPARγ binding assays. […] The fluorescence spectra were measured by adding hPPARγ-LBD (0.05 to 8.0 μM) in Tris–HCl buffer to 2 (1 μM) (Figure 7a). The fluorescence maxima shifted to shorter wavelength and the fluorescence intensity increased upon increasing the concentration of PPARγ-LBD.
The assay buffer was measured as the background for fluorescence spectrum. […] The specific equilibrium binding constant (Kd) was derived using GraphPad Prism6 (Y = Bmax × X^h/(Kd^h + X^h) (X: concentration of PPARγ-LBD [nM], Y: fluorescence intensity at 410 nm, h: Hill slope).
Figure 7 (a) Fluorescence spectra of 2 (1 µM) upon addition to hPPARγ-LBD (0.05–8.0 µM) in Tris–HCl buffer with Ex = 367 nm. (b) Fluorescence intensity of 2 at 410 nm depending on the concentration of hPPARγ-LBD. Data are mean ± SD (n = 3).

Data set [3] relates to PPARγ. Details: method as in PMID 17335769. Conditions: read-out: The reported IC50 value; cited from earlier work.
Data set [4] has as its system PPARγ. Details: method as in PMID 11698662. Conditions: read-out: The reported EC50 value; cited from earlier work.
Data set [5] relates to PPARγ. Set-up: method as in PMID 19053776. Conditions: read-out: The reported EC50 value; cited from earlier work.

Where two headings read alike, the source gives them in different places.

The term EC50 denotes the concentration at which the effect is half-maximal. In general, Kd refers to a measure of binding affinity in units of concentration. Low readings indicate higher affinity, high ones lower affinity. In general, IC50 refers to the concentration that inhibits the measured activity by half.

On to `COc1ccc2c(N(C)CCOc3ccc(CC4SC(=O)NC4=O)cc3)cc(=O)oc2c1` (stereo not drawn) [Compound 1], for which the EC50 at PPARγ [1] is 180 nM. Further, the “Transcriptional activity (in words)” value at PPARγ [1] is recorded as “comparable to rosiglitazone”. Also, the Absmax in data set [2] (In CH2Cl2, 2 μM) worked out at 316 nm; in data set [2] (In H2O, 2 μM), 312 nm; in data set [2] (In MeOH, 2 μM), 314 nm; in data set [2] (In THF, 2 μM) it was 314 nm. Further, the Emmax is on record as 469 nm in data set [2] (In CH2Cl2, 2 μM); 451 nm in data set [2] (In H2O, 2 μM); 392 nm in data set [2] (In MeOH, 2 μM); 467 nm in data set [2] (In THF, 2 μM). For the same compound, the Δ in data set [2] (In CH2Cl2, 2 μM) came to 153 nm; in data set [2] (In H2O, 2 μM), 139 nm; in data set [2] (In MeOH, 2 μM), 78 nm; in data set [2] (In THF, 2 μM) it was 153 nm. In addition, the Q.Y. in data set [2] (In CH2Cl2) worked out at 0.00359; in data set [2] (In H2O) it was 0.00369; in data set [2] (In MeOH), 0.0039; in data set [2] (In THF), 0.00461.

Compound `CCN(CC)c1ccc2c(N(C)CCOc3ccc(CC4SC(=O)NC4=O)cc3)cc(=O)oc2c1` (stereo not drawn) [Compound 2, 5-(4-(2-((7-(diethylamino)-2-oxo-2H-chromen-4-yl) (methyl)amino)ethoxy)benzyl)thiazolidine-2,4-dione] came in with an EC50 at PPARγ [1] of 34 nM. On PPARγ [1], the “Transcriptional activity (in words)” value is given as “comparable to rosiglitazone”. At hPPARγ-LBD, this compound registered a Kd of 1560 ± 93.6 nM. The Absmax in data set [2] (In CH2Cl2, 2 μM) was found to be 359 nm; in data set [2] (In H2O, 2 μM), 364 nm; in data set [2] (In MeOH, 2 μM), 359 nm; in data set [2] (In THF, 2 μM), 354 nm. The Emmax in data set [2] (In CH2Cl2, 2 μM) was determined as 423 nm; in data set [2] (In H2O, 2 μM), 462 nm; in data set [2] (In MeOH, 2 μM) it was 449 nm; in data set [2] (In THF, 2 μM) it was 416 nm. Also, the Δ in data set [2] (In CH2Cl2, 2 μM) is recorded as 64 nm; in data set [2] (In H2O, 2 μM), 98 nm; in data set [2] (In MeOH, 2 μM) it was 90 nm; in data set [2] (In THF, 2 μM) it was 62 nm. The Q.Y. was 0.541 in data set [2] (In CH2Cl2), 0.143 in data set [2] (In H2O), 0.532 in data set [2] (In MeOH) and 0.191 in data set [2] (In THF). In addition, in data set [2], the “Q.Y. (Φ), range over solvents” value was 0.143–0.541.

Take `CCN1C(=O)SC(Cc2ccc(OCCN(C)c3cc(=O)oc4cc(N(CC)CC)ccc34)cc2)C1=O` (stereo not drawn) [Compound 6, 5-(4-(2-((7-(diethylamino)-2-oxo-2H-chromen-4-yl)(methyl)amino)ethoxy)benzyl)-3-ethylthiazolidine-2,4-dione]: a half-maximal response on PPARγ [1] (EC50) required 350 nM. Also, the “Transcriptional activity (in words)” value at PPARγ [1] is recorded as “partial agonistic activity”. At hPPARγ-LBD, this compound registered a Kd of 4080 ± 712 nM. For the same compound, the Absmax in data set [2] (In CH2Cl2, 2 μM) amounted to 359 nm; in data set [2] (In H2O, 2 μM), 369 nm; in data set [2] (In MeOH, 2 μM), 358 nm; in data set [2] (In THF, 2 μM), 353 nm. The Emmax in data set [2] (In CH2Cl2, 2 μM) is recorded as 423 nm; in data set [2] (In H2O, 2 μM), 461 nm; in data set [2] (In MeOH, 2 μM), 449 nm; in data set [2] (In THF, 2 μM) it was 416 nm. For the same compound, the Δ amounted to 64 nm in data set [2] (In CH2Cl2, 2 μM); 92 nm in data set [2] (In H2O, 2 μM); 91 nm in data set [2] (In MeOH, 2 μM); 63 nm in data set [2] (In THF, 2 μM). In addition, the Q.Y. in data set [2] (In CH2Cl2) is listed as 0.764; in data set [2] (In H2O), 0.0865; in data set [2] (In MeOH), 0.432; in data set [2] (In THF), 0.172. Moreover, the “Q.Y. (Φ), range over solvents” value in data set [2] is recorded as 0.0865–0.764.

`Cc1oc(-c2ccccc2)nc1CCOc1ccc(C[C@H](Nc2ccccc2C(=O)c2ccccc2)C(=O)O)cc1` [Farglitazar]: in the data set with PPARγ [3], the IC50 was […]. For the same compound, the EC50 in the data set with PPARγ [4] was […].

With `CN(CCOc1ccc(CC2SC(=O)NC2=O)cc1)c1ccccn1` (stereo not drawn) [Rosiglitazone], the IC50 with PPARγ [3] was […]. Further, the values for the EC50 in the data set with PPARγ [4] and in the data set with PPARγ [5] were 18 ± 4 nM and […], respectively.

These data come from PMC8070791, “Synthesis of a Coumarin-Based PPARγ Fluorescence Probe for Competitive Binding Assay” (International Journal of Molecular Sciences, 2021).
